Measurements published in publication PMC8509773, “3-Pyridinylidene Derivatives of Chemically Modified Lupane and Ursane Triterpenes as Promising Anticancer Agents by Targeting Apoptosis” (International Journal of Molecular Sciences, 2021).

Assays:
Experiment in all cases: NCI-60 SRB screening (one-dose and five-dose)
Type in all cases: cell-based, human
UO-31 = conditions: 48 h
Method in brief: (§1)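 Spectrophotometric SRB end point; 48-h drug exposure; percent of untreated-control growth reported.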

786-0 = conditions: 48 h
Method in brief: as §1

RXF 393 = conditions: 48 h
Method in brief: as §1

BT-549 = conditions: 48 h
Method in brief: as §1

T-47D = conditions: 48 h
Method in brief: (§2)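 Growth inhibition is scored with sulforhodamine B after 48 h of continuous compound exposure. An MG_MID averages each parameter over the whole cell panel, insensitive lines being counted at the top tested concentration.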

SK-MEL-28 = conditions: 48 h
Method in brief: as §2

NCI-H23 = conditions: 48 h
Method in brief: as §2

CCRF-CEM = conditions: 48 h
Method in brief: as §2

M14 = conditions: 48 h
Method in brief: as §1

MDA-MB-231/ATCC = conditions: 48 h
Method in brief: as §1

HL-60(TB) = conditions: 48 h
Method in brief: as §2

SN12C = conditions: 48 h
Method in brief: as §1

HS 578T = conditions: 48 h
Method in brief: as §2

RPMI-8226 = conditions: 48 h
Method in brief: as §1

TK-10 = conditions: 48 h
Method in brief: as §1

SF-295 = conditions: 48 h
Method in brief: as §1

UACC-62 = conditions: 48 h
Method in brief: as §1

SW-620 = conditions: 48 h
Method in brief: as §1

DU-145 = conditions: 48 h
Method in brief: as §2

OVCAR-4 = conditions: 48 h
Method in brief: as §2

UACC-257 = conditions: 48 h
Method in brief: as §1

A498 = conditions: 48 h
Method in brief: as §1

A549/ATCC = conditions: 48 h
Method in brief: as §1

PC-3 = conditions: 48 h
Method in brief: as §1

HOP-62 = conditions: 48 h
Method in brief: as §1

MOLT-4 = conditions: 48 h
Method in brief: as §1

HOP-92 = conditions: 48 h
Method in brief: as §2

HCC-2998 = conditions: 48 h
Method in brief: as §2

SNB-19 = conditions: 48 h
Method in brief: as §1

OVCAR-3 = conditions: 48 h
Method in brief: as §1

LOX IMVI = conditions: Homo sapiens, five dose 0.01–100 μM, 48 h
Method in brief: as §1

MCF7 = conditions: 48 h
Method in brief: as §1

NCI-H322M = conditions: 48 h
Method in brief: as §1

OVCAR-5 = conditions: 48 h
Method in brief: as §1

SNB-75 = conditions: 48 h
Method in brief: as §2

NCI-H522 = conditions: 48 h
Method in brief: as §1

NCI/ADR-RES = conditions: 48 h
Method in brief: as §1

MALME-3M = conditions: 48 h
Method in brief: as §1

NCI-H226 = conditions: 48 h
Method in brief: as §1

SK-MEL-5 = conditions: 48 h
Method in brief: as §1

[1] = Homo sapiens, five dose 0.01–100 μM

**Q.** Which GI50 (UO-31; Homo sapiens, UO-31, five dose 0.01–100 μM) does the source give for `COC(=O)[C@]12CC[C@@H](C(=O)/C=C/c3cccnc3)[C@@H]1[C@H]1CC[C@@H]3[C@@]4(C)C/C(=C\c5cccnc5)C(=O)C(C)(C)[C@@H]4CC[C@@]3(C)[C@]1(C)CC2` [Compound 7, methyl 2,30-bis-(3-pyridinylidene)-3,20-dioxo-lup-28-oate] here?
**A.** 0.17 µM

**Q.** And the “Growth Percent” value (UO-31; UO-31, 10 μM)?
**A.** −100.00%

**Q.** What about the “Growth Percent” value (786-0; 786-0, 10 μM) of the same compound?
**A.** −92.26%

**Q.** What about the GI50 (786-0; Homo sapiens, 786-0, five dose 0.01–100 μM) of the same compound?
**A.** 0.31 µM

**Q.** What about the GI50 (RXF 393; Homo sapiens, RXF 393, five dose 0.01–100 μM) of the same compound?
**A.** 0.27 µM

**Q.** What about the “Growth Percent” value (RXF 393; RXF 393, 10 μM) of the same compound?
**A.** −93.62%

**Q.** What about the “Growth Percent” value (BT-549; BT-549, 10 μM) of the same compound?
**A.** −92.12%

**Q.** And the GI50 (BT-549; Homo sapiens, BT-549, five dose 0.01–100 μM)?
**A.** 0.22 µM

**Q.** What about the GI50 (T-47D; Homo sapiens, T47D, T -47D, five dose 0.01–100 μM) of the same compound?
**A.** 0.43 µM

**Q.** What about the “Growth Percent” value (T-47D; T-47D, 10 μM) of the same compound?
**A.** −43.57%

**Q.** What about the GI50 (SK-MEL-28; Homo sapiens, SK-MEL-28, five dose 0.01–100 μM) of the same compound?
**A.** 0.24 µM

**Q.** And the “Growth Percent” value (SK-MEL-28; SK-MEL-28, 10 μM)?
**A.** −96.28%

**Q.** What about the GI50 (NCI-H23; Homo sapiens, NCI-H23, five dose 0.01–100 μM) of the same compound?
**A.** 0.35 µM

**Q.** And the “Growth Percent” value (NCI-H23; NCI-H23, 10 μM)?
**A.** −48.31%

**Q.** What about the “Growth Percent” value (CCRF-CEM; 10 μM) of the same compound?
**A.** 0.95%

**Q.** What about the GI50 (CCRF-CEM; [1]) of the same compound?
**A.** 0.31 µM

**Q.** What about the GI50 (M14; Homo sapiens, M14, five dose 0.01–100 μM) of the same compound?
**A.** 0.31 µM

**Q.** And the “Growth Percent” value (M14; M14, 10 μM)?
**A.** −80.31%

**Q.** What about the “Growth Percent” value (MDA-MB-231/ATCC; 10 μM) of the same compound?
**A.** −81.32%

**Q.** And the GI50 (MDA-MB-231/ATCC; [1])?
**A.** 0.47 µM

**Q.** And the “Growth Percent” value (HL-60(TB); 10 μM)?
**A.** −30.17%

**Q.** What about the GI50 (HL-60(TB); [1]) of the same compound?
**A.** 0.25 µM

**Q.** What about the “Growth Percent” value (SN12C; 10 μM) of the same compound?
**A.** −77.80%

**Q.** And the GI50 (SN12C; [1])?
**A.** 0.39 µM

**Q.** What about the “Growth Percent” value (HS 578T; 10 μM) of the same compound?
**A.** −49.05%

**Q.** What about the GI50 (HS 578T; [1]) of the same compound?
**A.** 0.46 µM

**Q.** What about the GI50 (RPMI-8226; Homo sapiens, RPMI-8226, five dose 0.01–100 μM) of the same compound?
**A.** 0.24 µM

**Q.** And the “Growth Percent” value (RPMI-8226; RPMI-8226, 10 μM)?
**A.** −28.73%

**Q.** What about the GI50 (TK-10; Homo sapiens, TK-10, five dose 0.01–100 μM) of the same compound?
**A.** 0.65 µM

**Q.** And the “Growth Percent” value (TK-10; TK-10, 10 μM)?
**A.** −60.49%

**Q.** And the GI50 (SF-295; Homo sapiens, SF-295, five dose 0.01–100 μM)?
**A.** 0.44 µM

**Q.** And the “Growth Percent” value (SF-295; SF-295, 10 μM)?
**A.** −98.52%

**Q.** And the GI50 (UACC-62; Homo sapiens, UACC-62, five dose 0.01–100 μM)?
**A.** 0.4 µM

**Q.** And the “Growth Percent” value (UACC-62; UACC-62, 10 μM)?
**A.** −67.85%

**Q.** What about the GI50 (SW-620; Homo sapiens, SW-620, five dose 0.01–100 μM) of the same compound?
**A.** 0.3 µM

**Q.** What about the “Growth Percent” value (SW-620; SW-620, 10 μM) of the same compound?
**A.** −67.32%

**Q.** What about the “Growth Percent” value (DU-145; DU-145, 10 μM) of the same compound?
**A.** −67.84%

**Q.** What about the GI50 (DU-145; Homo sapiens, DU-145, five dose 0.01–100 μM) of the same compound?
**A.** 1.53 µM

**Q.** And the GI50 (OVCAR-4; Homo sapiens, OVCAR-4, five dose 0.01–100 μM)?
**A.** 0.34 µM

**Q.** And the “Growth Percent” value (OVCAR-4; OVCAR-4, 10 μM)?
**A.** −39.20%

**Q.** And the GI50 (UACC-257; Homo sapiens, UACC-257, five dose 0.01–100 μM)?
**A.** 0.27 µM

**Q.** What about the “Growth Percent” value (UACC-257; UACC-257, 10 μM) of the same compound?
**A.** −58.90%

**Q.** And the “Growth Percent” value (A498; A498, 10 μM)?
**A.** −91.17%

**Q.** And the GI50 (A498; Homo sapiens, A498, five dose 0.01–100 μM)?
**A.** 0.18 µM

**Q.** What about the “Growth Percent” value (A549/ATCC; 10 μM) of the same compound?
**A.** −9.34%

**Q.** What about the GI50 (A549/ATCC; [1]) of the same compound?
**A.** 0.39 µM

**Q.** What about the GI50 (PC-3; Homo sapiens, PC-3, five dose 0.01–100 μM) of the same compound?
**A.** 0.42 µM

**Q.** And the “Growth Percent” value (PC-3; PC-3, 10 μM)?
**A.** −14.12%

**Q.** What about the “Growth Percent” value (HOP-62; HOP-62, 10 μM) of the same compound?
**A.** −85.57%

**Q.** What about the GI50 (HOP-62; Homo sapiens, HOP-62, five dose 0.01–100 μM) of the same compound?
**A.** 0.69 µM

**Q.** What about the GI50 (MOLT-4; Homo sapiens, MOLT-4, five dose 0.01–100 μM) of the same compound?
**A.** 0.3 µM

**Q.** What about the “Growth Percent” value (MOLT-4; MOLT-4, 10 μM) of the same compound?
**A.** −31.34%

**Q.** What about the “Growth Percent” value (HOP-92; HOP-92, 10 μM) of the same compound?
**A.** −79.86%

**Q.** And the GI50 (HOP-92; Homo sapiens, HOP-92, five dose 0.01–100 μM)?
**A.** 0.53 µM

**Q.** And the “Growth Percent” value (HCC-2998; HCC-2998, 10 μM)?
**A.** −55.45%

**Q.** What about the GI50 (HCC-2998; Homo sapiens, HCC-2998, five dose 0.01–100 μM) of the same compound?
**A.** 0.67 µM

**Q.** What about the GI50 (SNB-19; Homo sapiens, SNB-19, five dose 0.01–100 μM) of the same compound?
**A.** 0.69 µM

**Q.** And the “Growth Percent” value (SNB-19; SNB-19, 10 μM)?
**A.** −87.62%

**Q.** What about the GI50 (OVCAR-3; Homo sapiens, OVCAR-3, five dose 0.01–100 μM) of the same compound?
**A.** 0.27 µM

**Q.** What about the “Growth Percent” value (OVCAR-3; OVCAR-3, 10 μM) of the same compound?
**A.** −93.24%

**Q.** What about the GI50 (LOX IMVI) of the same compound?
**A.** 0.21 µM

**Q.** And the GI50 (MCF7; Homo sapiens, MCF7, five dose 0.01–100 μM)?
**A.** 0.38 µM

**Q.** And the “Growth Percent” value (MCF7; MCF7, 10 μM)?
**A.** −54.19%

**Q.** What about the “Growth Percent” value (NCI-H322M; 10 μM) of the same compound?
**A.** −80.71%

**Q.** And the GI50 (NCI-H322M; [1])?
**A.** 1.48 µM

**Q.** What about the GI50 (OVCAR-5; Homo sapiens, OVCAR-5, five dose 0.01–100 μM) of the same compound?
**A.** 0.41 µM

**Q.** What about the “Growth Percent” value (OVCAR-5; OVCAR-5, 10 μM) of the same compound?
**A.** −62.74%

**Q.** And the GI50 (SNB-75; Homo sapiens, SNB-75, five dose 0.01–100 μM)?
**A.** 1.35 µM

**Q.** And the “Growth Percent” value (SNB-75; SNB-75, 10 μM)?
**A.** −98.68%

**Q.** And the GI50 (NCI-H522; Homo sapiens, NCI-H522, five dose 0.01–100 μM)?
**A.** 0.66 µM

**Q.** And the “Growth Percent” value (NCI-H522; NCI-H522, 10 μM)?
**A.** −59.72%

**Q.** And the “Growth Percent” value (NCI/ADR-RES; 10 μM)?
**A.** −39.38%

**Q.** What about the GI50 (NCI/ADR-RES; [1]) of the same compound?
**A.** 0.43 µM

**Q.** What about the “Growth Percent” value (MALME-3M; 10 μM) of the same compound?
**A.** −95.19%

**Q.** And the GI50 (MALME-3M; [1])?
**A.** 0.21 µM

**Q.** What about the GI50 (NCI-H226; Homo sapiens, NCI-H226, five dose 0.01–100 μM) of the same compound?
**A.** 1.48 µM

**Q.** And the “Growth Percent” value (NCI-H226; NCI-H226, 10 μM)?
**A.** −44.44%

**Q.** What about the GI50 (SK-MEL-5; Homo sapiens, SK-MEL-5, five dose 0.01–100 μM) of the same compound?
**A.** 0.46 µM

**Q.** What about the “Growth Percent” value (SK-MEL-5; SK-MEL-5, 10 μM) of the same compound?
**A.** −98.85%
